The values below are quoted from earlier work in PMC9516282, “Low prevalence of influenza A strains with resistance markers in Brazil during 2017–2019 seasons” (Frontiers in Public Health, 2022).

The data set deals with PA:E199G. More on the design: method as in PMID 30670144. The following applies: virus with PA:E199G substitution.

For the compound `COC(=O)OCOc1c2n(ccc1=O)N([C@@H]1c3ccccc3SCc3c1ccc(F)c3F)[C@@H]1COCCN1C2=O` [BXM, baloxavir marboxil], the “RI (reduced inhibition) to BXM” value was 4.5 fold.
